These results are taken from patent publication US20210052621A1, “METHODS FOR TREATING FLAVIVIRUSES AND ZIKA INFECTIONS” (THE REGENTS OF THE UNIVERSITY OF CALIFORNIA, priority 2017, published 2021).

One assay relates to ZIKA in Vero cells. Nature of the assay: Screening of additional compounds for ZIKA levels using Vero cells (viral RNA released, qRT-PCR). In kind it is cell-based, Zika virus. As to conditions: 10 μM, viral RNA released by qRT-PCR. On the procedure: FIG. 6. Screening of additional compounds for ZIKA levels using Vero cells (in 10 μM concentration). Methods of screening were as described herein. Viral RNA released was analyzed by qRT-PCR for ZIKA. Compounds (left to right): control, berberine, fluoxetine, formoterol, genistine, U0126, dibucaine, pirlindole, suramin, mycophenolic acid, polyhydroxyalkanoates, (PHA) and niclosamide.
FIG. 7. Screening of additional compounds for ZIKA levels using Vero cells (in 10 μM concentration) as described for FIG. 6. Compounds (left to right): clomiphene, amphotericin B, and toremifene.
FIG. 8. Screening of additional compounds for ZIKA levels using Vero cells (in 10 μM concentration) as described for FIG. 6.
FIG. 6 depicts ZIKV levels as determined by qRT-PCR for ZIKA in Vero cells at 10 μM concentration (left to right) of control, berberine, fluoxentine, formoterol, genistine, U0126, dibucaine, pirlindole, suramin, mycophenolic acid, PHA, and niclosamide.
FIG. 7 depicts dose response studies on ZIKV levels for clomiphene, amphotericin B, and toremifene.
FIG. 8 depicts ZIKV levels after administration of various agents. […] Zidovudine. Acyclovir. Drostanolone Propionate, Dapivirine (TMC120), Tilorone hydrochloride, and Docosanol.

In assay [1] the test system is Zika virus in 293 T cells. Nature of the assay: Dose dependent inhibition of Zika virus in 293 T cells, IC50 calculated. The class given is cell-based. As to conditions: MOI of 5, different concentration of drugs. As to the method:
FIGS. 2A-2D. […] FIG. 2A—Lopinavir. FIG. 2B—Daclatasvir. FIG. 2C—Oxyclozanide. FIG. 2D—Rafoxanide.
Conditions: Zika virus in 293 T cells at the MOI of 5 using different concentration of drugs. IC50 was calculated.

The subject of a further assay is ZIKA in 293 cells. Briefly: ZIKA inhibition in 293 cells visualized by immune staining. Particulars: 20 μM. In kind it is cell-based, Zika virus. The source says: FIGS. 9A-9K. […] Drugs: mock (FIG. 9A), DMSO (FIG. 9B), PHA-690509 (FIG. 9C), formoterol (FIG. 9D), fluoxetine (FIG. 9E), genistein (FIG. 9F), U0126 (FIG. 9G), berberine (FIG. 9H), dibucaine (FIG. 9I), pirlindole (FIG. 9J), and suramin (FIG. 9K). Left panels: DAPI; right panels: ZIKV.
Agents in order (top to bottom): mock, DMSO, PHA-690509, formoterol, fluoxetine, genistein, U0126, berberine, dibucaine, pirlindole, and suramin.

Assay [2] deals with ZIKV in human microglial cell line. Briefly: ZIKV replication in microglia treated with nucleoside metabolic inhibitors (RT-qPCR, immunohistochemistry). As to conditions: MOI of 1, 1 μM and 10 μM, 48 hpi. In kind it is cell-based, Zika virus. On the procedure:
FIGS. 14A-14D. Nucleoside Metabolic Inhibitors Attenuate ZIKV Replication. (FIG. 14A) ZIKV replication assessed by RT-qPCR analysis 48 hours post-infection in mock, ZIKV only, ZIKV plus 1 μM floxuridine or ZIKV plus 10 μM floxuridine treated microglia. Data are presented as the mean±SEM of n=3. *p<0.05, **p<0.01 by t-test. (FIG. 14B) Immunohistochemistry of ZIKV gene expression in mock, ZIKV only, ZIKV plus 1 μM floxuridine (FUDX1) or ZIKV plus 10 μM floxuridine (FUDX10) treated microglia. Cells were stained with anti-flavivirus envelope protein (ZIKVE), and nuclei were visualized with Hoechst 33258. (FIG. 14C) ZIKV replication assessed by RT-qPCR analysis 48 hours post-infection in mock, ZIKV only, ZIKV plus fluorouracil or ZIKV plus 10 μM fluorouracil treated microglia. Data are presented as the mean±SEM of n=3. *p<0.05, **p<0.01 by t-test. […]
Since metabolic processes are the most dysregulated pathways during ZIKV infection at the transcriptome level, we hypothesized that inhibition of these pathways could be exploited for therapeutic effects. […] The effect of the antimetabolites floxuridine (FIGS. 14A-14B) and flurouracil (FIGS. 14C-14D) on ZIKV replication was assessed 48 hpi at the RNA and protein level by RT-qPCR and immunohistochemistry, respectively.
Drug Treatment. […] ZIKV RNA was quantified by using specific primers by SYBR Green PCR Master Mix (Bio-Rad) using a Roche LightCycler 480. […]

Entries after “also recorded” stand apart in the source; their conditions may differ. Counter-ions that a name gives are not always drawn.

For `Cc1cc(C)c(Nc2ccnc(Nc3ccc(C#N)cc3)n2)c(C)c1` [Dapivirine (TMC120), 4-{[4-(mesitylamino)-2-pyrimidinyl]amino}benzonitrile], the “ZIKV levels / ZIKV load (Hits)” value in the assay on ZIKA in Vero cells is “reduce ZIKV load”.
Still for that read-out and setting: the entry for `CCCCCCCCCCCCCCCCCCCCCCO` [Docosanol] is “reduce ZIKV load”; for `Nc1nc2c(ncn2COC(CO)CO)c(=O)[nH]1` [Ganciclovir, 9-(1,3-dihydroxy-2-propoxymethyl)guanine] it is “reduce ZIKV load”.
With `Cc1cccc(C)c1OCC(=O)N[C@@H](Cc1ccccc1)[C@@H](O)C[C@H](Cc1ccccc1)NC(=O)[C@H](C(C)C)N1CCCNC1=O` [Lopinavir, (2S)—N-[(2S,4S,5S)-5-[2-(2,6-dimethylphenoxy)acetamido]-4-hydroxy-1,6-diphenylhexan-2-yl]-3-methyl-2-(2-oxo-1,3-diazinan-1-yl)butanamide], in assay [1], the “Dose dependent inhibition of Zika virus” value was “Dose dependent inhibition”.
In the case of `O=C(Nc1cc(Cl)cc(Cl)c1O)c1c(O)c(Cl)cc(Cl)c1Cl` [Oxyclozanide], in assay [1], the “Dose dependent inhibition of Zika virus” value is given as “Dose dependent inhibition”.
Take `CC(=O)Nc1ccc([C@H](C)C(=O)Nc2ncc(C(C)C)s2)cc1` [PHA-690509]: the “ZIKA inhibition visualized by immune staining” value (“ZIKA inhibition visualized” for short) with ZIKA in 293 cells was “ZIKA inhibition”.
`CCN(CC)CCOC(=O)c1ccc(N)cc1` [Procaine hydrochloride, 4-amino-, 2-(diethylamino) ethyl ester monohydrochloride]: the “ZIKV levels / ZIKV load (Hits)” value in the assay with ZIKA in Vero cells is “reduce ZIKV load”.
On to `O=C(Nc1ccc(Oc2ccc(Cl)cc2)c(Cl)c1)c1cc(I)cc(I)c1O` [Rafoxanide], for which the “Dose dependent inhibition of Zika virus” value in assay [1] is reported as “Dose dependent inhibition”.
With `CCN(CC)CCOc1ccc2c(c1)C(=O)c1cc(OCCN(CC)CC)ccc1-2.Cl` [Tilorone hydrochloride, 2,7-Bis(2-diethylaminoethoxy)fluoren-9-one hydrochloride], the “ZIKV levels / ZIKV load (Hits)” value in the assay on ZIKA in Vero cells is “reduce ZIKV load”.
Take `N#CC(=C(/N)Sc1ccccc1N)/C(C#N)=C(\N)Sc1ccccc1N` [U0126]: in the assay with ZIKA in 293 cells, the “ZIKA inhibition visualized” value is “ZIKA inhibition”.
On to `Cc1cn([C@H]2C[C@H](N=[N+]=[N-])[C@@H](CO)O2)c(=O)[nH]c1=O` [Zidovudine, 3′-deoxy-3′-azido-thymidine], for which the “ZIKV levels / ZIKV load (Hits)” value in the assay on ZIKA in Vero cells is given as “reduce ZIKV load”.
As to `COc1ccc2cc3[n+](cc2c1OC)CCc1cc2c(cc1-3)OCO2` [berberine], the “ZIKA inhibition visualized” value in the assay with ZIKA in 293 cells is given as “ZIKA inhibition”.
Still for that read-out and setting: the entry for `CCCCOc1cc(C(=O)NCCN(CC)CC)c2ccccc2n1` [dibucaine] is “ZIKA inhibition”.
`O=c1[nH]c(=O)n([C@H]2C[C@H](O)[C@@H](CO)O2)cc1F` [floxuridine]: in assay [2], the “ZIKV replication (RT-qPCR and immunohistochemistry)” value is given as “inhibited ZIKV more efficiently in a dose dependent manner than flurouracil; also recorded: dose-dependent inhibition of ZIKV replication; also recorded: abrogated ZIKV replication”.
With `CNCCC(Oc1ccc(C(F)(F)F)cc1)c1ccccc1` (centres unmarked) [fluoxetine, N-methyl-3-phenyl-3-[4-(trifluoromethyl)phenoxy]propan-1-amine], the “ZIKA inhibition visualized” value with ZIKA in 293 cells is listed as “ZIKA inhibition”.
As for `O=c1[nH]cc(F)c(=O)[nH]1` [flurouracil], in assay [2], the “ZIKV replication (RT-qPCR and immunohistochemistry)” value is on record as “affected ZIKV”.
Consider `COc1ccc(CC(C)NCC(O)c2ccc(O)c(NC=O)c2)cc1` (centres unmarked) [formoterol], for which the “ZIKA inhibition visualized” value with ZIKA in 293 cells is given as “ZIKA inhibition”.
Consider `O=c1c(-c2ccc(O)cc2)coc2cc(O)cc(O)c12` [genistein], for which the “ZIKA inhibition visualized” value in the assay on ZIKA in 293 cells is “ZIKA inhibition”.
Same read-out and setting: with `Cc1ccc2c(c1)c1c3n2CCNC3CCC1` (centres unmarked) [pirlindole] the entry was “ZIKA inhibition”; with `Cc1ccc(C(=O)Nc2ccc(S(=O)(=O)O)c3cc(S(=O)(=O)O)cc(S(=O)(=O)O)c23)cc1NC(=O)c1cccc(NC(=O)Nc2cccc(C(=O)Nc3cc(C(=O)Nc4ccc(S(=O)(=O)O)c5cc(S(=O)(=O)O)cc(S(=O)(=O)O)c45)ccc3C)c2)c1` [suramin, 8,8′-{Carbonylbis[imino-3,1-phenylenecarbonylimino(4-methyl-3,1-phenylene)carbonylimino]}di(1,3,5-naphthalenetrisulfonic acid)], “ZIKA inhibition”.
